According to US20220202963A1, “RADIOLABELED COMPOUNDS” (Hoffmann-La Roche Inc., priority 2019, published 2022):

Legend:
[1] = target: T1, MAGL (Homo sapiens, UniProt Q99685); assay: 2-AG assay (MAGL inhibitory activity, hydrolysis of 2-arachidonoylglycerol followed by mass spectrometry); type: biochemical; details: 50 pM MAGL, 8 μM 2-arachidonoylglycerol, 15 min pre-incubation, 30 min at RT
T1 sequence (Q99685 1-303): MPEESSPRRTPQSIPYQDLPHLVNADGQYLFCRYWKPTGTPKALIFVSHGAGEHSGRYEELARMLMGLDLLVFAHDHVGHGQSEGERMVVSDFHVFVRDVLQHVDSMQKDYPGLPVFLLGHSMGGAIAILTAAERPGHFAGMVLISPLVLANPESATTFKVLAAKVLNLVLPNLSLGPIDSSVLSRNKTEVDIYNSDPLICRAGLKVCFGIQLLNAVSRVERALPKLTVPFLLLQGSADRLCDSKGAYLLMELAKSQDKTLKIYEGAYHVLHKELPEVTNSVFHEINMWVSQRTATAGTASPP
Description: Compounds were profiled for MAGL inhibitory activity by determining the enzymatic activity by following the hydrolysis of the natural substrate, 2-arachidonoylglycerol, resulting in arachidonic acid, which can be followed by mass spectrometry. This assay is hereinafter abbreviated “2-AG assay”.
A C18 SPE cartridge (G9205A) was used in an acetonitrile/water liquid setup. […] The activity of the compounds was calculated based on the ratio of intensities [arachidonic acid/d8-arachidonic acid].

[2] = target: T2, MAGL (Rattus norvegicus, UniProt Q8R431); assay: In vivo binding to MAGL assessed by ex vivo autoradiography in CD(SD) rats; parameters: 10 μm sagittal brain sections from Wistar rats were used in in vitro autoradiography; from tissue; host or cells: rat brain (Wistar sections; CD(SD) rats dosed in vivo); details: male CD(SD) rats, 1 mCi/kg i.v., 90 min post injection; blocked by a high dose of a MAGL inhibitor
T2 sequence (Q8R431 1-303): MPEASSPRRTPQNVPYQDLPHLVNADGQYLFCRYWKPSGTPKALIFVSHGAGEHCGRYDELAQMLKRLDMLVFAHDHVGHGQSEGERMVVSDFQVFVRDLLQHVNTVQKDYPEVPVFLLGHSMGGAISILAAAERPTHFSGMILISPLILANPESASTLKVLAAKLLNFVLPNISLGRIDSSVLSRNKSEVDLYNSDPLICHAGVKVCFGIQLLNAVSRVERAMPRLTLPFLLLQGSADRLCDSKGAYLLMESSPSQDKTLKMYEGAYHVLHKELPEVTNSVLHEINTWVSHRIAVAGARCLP
Description: Rats were sacrificed by decapitation 90 min after administration of the radioligand. Brains were rapidly removed and divided in two halves along their sagittal axis. The brain halves were frozen in dry ice for following cryosectioning. The hemisphere was placed in a cryostat and sagittal sections (10 μm thickness) were cut. Brain sections were mounted on Histobond glass slides (Marienfeld Laboratories Glassware, Germany), dried at room temperature and exposed, together with tritium microscales, to tritium-sensitive imaging plates (BAS-TR2025) for five days. The imaging plates were scanned in a Fujifilm BAS-5000 high resolution phosphor imager and the amount of [^3H]2 bound to the brain regions of interest was quantified with an MCID M2 image analysis system (Imaging Research Inc., St. Catherines, Ontario, Canada).

[3] = target: T3, MAGL (Mus musculus, UniProt O35678); assay: In vitro autoradiography of 3H ligands on sagittal mouse brain sections (MAGL WT and ko); details: 1 nM radioligand, 30 min; for binding on wt tissue samples (autoradiography): MAGL WT mouse brain sections; for binding on MAGL ko tissue sections (autoradiography; selectivity, non-specific binding): MAGL ko mouse brain sections
T3 sequence (O35678 1-303): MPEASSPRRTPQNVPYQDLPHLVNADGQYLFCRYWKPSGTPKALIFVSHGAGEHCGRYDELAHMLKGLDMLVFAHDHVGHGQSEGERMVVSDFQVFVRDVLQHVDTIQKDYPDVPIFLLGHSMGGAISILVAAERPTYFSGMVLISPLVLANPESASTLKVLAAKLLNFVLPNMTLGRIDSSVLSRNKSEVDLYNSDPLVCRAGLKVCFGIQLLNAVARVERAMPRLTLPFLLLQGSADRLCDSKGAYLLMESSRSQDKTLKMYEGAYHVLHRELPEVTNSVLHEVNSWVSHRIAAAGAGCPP
Description: Receptor autoradiography was performed on sagittal sections of fresh-frozen brains from MAGL WT and ko mice (C57BL6/6NTac-Mgllem4993_02Tac). Tissue sections (10 μm) from brain specimens were cut in a cryostat (Leica CM3050) at −17° C. chamber temperature and −15° C. object temperature and thaw-mounted on microscope glass slides (HistoBond, Paul Marienfeld GmbH, Lauda-Königshofen, Germany). Brain sections were incubated for 30 min in 50 mM Tris-HCl buffer pH 7.4 with 0.1% BSA at RT containing 1 nM of the radioligand. Sections were rinsed three times for 10 min in ice-cold 50 mM Tris-HCl buffer, followed by three dips into ice-cold H2O and air-dried at 4° C. before being exposed to tritium-sensitive imaging plates (BAS-IP TR2025, Fujifilm, Dielsdorf, Switzerland) with a tritium microscale for 5 days at RT. The imaging plates were scanned with a high-resolution phosphor imager (Fuji BAS-5000, Bucher Biotec AG, Basel, Switzerland) and the binding intensity for selected brain areas was quantified using an MCID M2 image analysis software (version 7; InterFocus Imaging GmbH, Mering, Germany).

[4] = target: T2, MAGL; assay: In vitro autoradiography of 11C tracers on sagittal brain sections from Wistar rats
Description: 10 μm sagittal brain sections from Wistar rats were used in in vitro autoradiography. On the day of experimentation, the slices were thawed on ice (10 min) and pre-conditioned in an aqueous buffer containing 30 mM 4-(2-hydroxyethyl)-1-piperazineethanesulfonic acid (HEPES), 1.2 mM MgCl2, 110 mM NaCl, 5 mM KCl, 2.5 mM CaCl2, and 1% fatty-acid-free bovine serum albumin (pH 7.4, 0° C.) for 10 min. The tissue samples were dried in air and subsequently incubated with radiotracer or a mixture of radiotracer and a cold MAGL inhibitor as a blocker at ambient temperature for 30 min. Upon completion of the incubation time, the slices were washed once for 3 min in the aqueous buffer described above, and twice for 2 min in the aqueous buffer described without 1% fatty-acid-free bovine serum albumin. After two quick dips in distilled water, the sections were dried in the air and exposed to a phosphor image plate for 1 h. The films were scanned by a BAS5000 reader (Fuji), and the data were analyzed using AIDA software, version 4.50.010 (Raytest Isotopenmessgeräte GmbH). For [^11C]1, 10 μM SAR127303 and 10 μg/mL 10 were used as blockers.

Compound	IC50 [1]	also measured
Cc1ccc(C(F)=CC2CN(C(=O)N3CC[C@@H]4OCC(=O)N[C@@H]4C3)C2)cc1F (mixture of isomers) [Example 10, (4aR,8aS)-6-[3-[2-Fluoro-2-(3-fluoro-4-methyl-phenyl)vinyl]azetidine-1-carbonyl]-4,4a,5,7,8,8a-hexahydropyrido[4,3-b][1,4]oxazin-3-one]	20 nM	–
COc1cccc(F)c1CC1CC2(C1)CN(C(=O)N1CC[C@@H]3OCC(=O)N[C@@H]3C1)C2 [Example 2, (4aR,8aS)-6-[6-[(2-Fluoro-6-methoxy-phenyl)methyl]-2-azaspiro[3.3]heptane-2-carbonyl]-4,4a,5,7,8,8a-hexahydropyrido[4,3-b][1,4]oxazin-3-one]	0.07 nM	–
COc1ccc(CCC2CN(C(=O)N3CC[C@@H]4OCC(=O)N[C@@H]4C3)C2)c(C(F)(F)F)c1 [Example 4, (4aR,8aS)-6-[3-[2-[4-Methoxy-2-(trifluoromethyl)phenyl]ethyl]azetidine-1-carbonyl]-4,4a,5,7,8,8a-hexahydropyrido[4,3-b][1,4]oxazin-3-one]	6 nM	–
O=C1CO[C@H]2CCN(C(=O)N3CC4(CC(Cc5c(F)cccc5F)C4)C3)C[C@H]2N1 [Example 6, (4aR,8aS)-6-[6-[(2,6-Difluorophenyl)methyl]-2-azaspiro[3.3]heptane-2-carbonyl]-4,4a,5,7,8,8a-hexahydropyrido[4,3-b][1,4]oxazin-3-one]	0.1 nM	–
COc1ccccc1CC1CC2(C1)CN(C(=O)N1CC[C@@H]3OCC(=O)N[C@@H]3C1)C2 [Example 7, (4aR,8aS)-6-[6-[(2-Methoxyphenyl)methyl]-2-azaspiro[3.3]heptane-2-carbonyl]-4,4a,5,7,8,8a-hexahydropyrido[4,3-b][1,4]oxazin-3-one]	0.2 nM	–
CC(C)COc1ccc(C2CN(C(=O)N3CC[C@@H]4OCC(=O)N[C@@H]4C3)C2)cc1 [Example 9, (4aR,8aS)-6-[3-(4-isobutoxyphenyl)azetidine-1-carbonyl]-4,4a,5,7,8,8a-hexahydropyrido[4,3-b][1,4]oxazin-3-one]	1 nM	–
COc1cccc(F)c1CC1CC2(C1)CN(C(=O)N1CC[C@@H]3OCC(=O)N[C@@H]3C1)C2 [Example [^3H]2, [^3H](4aR,8aS)-6-[6-[(2-Fluoro-6-methoxy-phenyl)methyl]-2-azaspiro[3.3]heptane-2-carbonyl]-4,4a,5,7,8,8a-hexahydropyrido[4,3-b][1,4]oxazin-3-one]	–	in vivo binding to MAGL in brain (ex vivo autoradiography) [2]: Selective and specific binding to MAGL; binding on wt tissue samples (autoradiography) [3]: Selective binding to MAGL; binding on MAGL ko tissue sections (autoradiography; selectivity, non-specific binding) [3]: absence of binding
Cc1ccc(CCC2CN(C(=O)N3CC[C@@H]4OCC(=O)N[C@@H]4C3)C2)c(F)c1 [Example [^3H]3, [^3H](4aR,8aS)-6-[3-[2-(2-Fluoro-4-methyl-phenyl)ethyl]azetidine-1-carbonyl]-4,4a,5,7,8,8a-hexahydropyrido[4,3-b][1,4]oxazin-3-one]	–	binding on wt tissue samples (autoradiography) [3]: Selective binding to MAGL; binding on MAGL ko tissue sections (autoradiography; selectivity, non-specific binding) [3]: absence of binding
COc1ccc(CCC2CN(C(=O)N3CC[C@@H]4OCC(=O)N[C@@H]4C3)C2)c(C(F)(F)F)c1 [Example [^3H]4, [^3H](4aR,8aS)-6-[3-[2-[4-Methoxy-2-(trifluoromethyl)phenyl]ethyl]azetidine-1-carbonyl]-4,4a,5,7,8,8a-hexahydropyrido[4,3-b][1,4]oxazin-3-one]	–	binding on wt tissue samples (autoradiography) [3]: Selective binding to MAGL; binding on MAGL ko tissue sections (autoradiography; selectivity, non-specific binding) [3]: absence of binding
O=C1CO[C@H]2CCN(C(=O)N3CC(c4ccc(C5CCC5)cc4)C3)C[C@H]2N1 [Example [^11C]5, [^11C](4aR,8aS)-6-[3-(4-Cyclobutylphenyl)azetidine-1-carbonyl]-4,4a,5,7,8,8a-hexahydropyrido[4,3-b][1,4]oxazin-3-one]	–	binding to MAGL on sagittal rat brain sections (autoradiography) ([4]; Wistar rat brain sections, radiotracer alone, 30 min): selectively bind to MAGL; blocking of binding by cold MAGL inhibitors ([4]; co-incubation with blockers (10 μM SAR127303 and 10 μg/mL 10 for [11C]1; 10 μM SAR127303 and 10 μM PF-06795071 for [11C]5)): binding can be blocked

The next lines start with results.

IC50 [1]	Compound	also measured
5 nM	Cc1ccc(CCC2CN(C(=O)N3CC[C@@H]4OCC(=O)N[C@@H]4C3)C2)c(F)c1 [Example 3, (4aR,8aS)-6-[3-[2-(2-Fluoro-4-methyl-phenyl)ethyl]azetidine-1-carbonyl]-4,4a,5,7,8,8a-hexahydropyrido[4,3-b][1,4]oxazin-3-one]	–
1 nM	O=C1CO[C@H]2CCN(C(=O)N3CC(c4ccc(C5CCC5)cc4)C3)C[C@H]2N1 [Example 5, (4aR,8aS)-6-[3-(4-Cyclobutylphenyl)azetidine-1-carbonyl]-4,4a,5,7,8,8a-hexahydropyrido[4,3-b][1,4]oxazin-3-one]	–
90 nM	Cc1ccc(/C(F)=C/C2CN(C(=O)N3CC[C@@H]4OCC(=O)N[C@@H]4C3)C2)cc1F [Example 11, (4aR,8aS)-6-[3-[(Z)-2-Fluoro-2-(3-fluoro-4-methyl-phenyl)vinyl]azetidine-1-carbonyl]-4,4a,5,7,8,8a-hexahydropyrido[4,3-b][1,4]oxazin-3-one]	–
40 nM	Cc1ccc(/C(F)=C\C2CN(C(=O)N3CC[C@@H]4OCC(=O)N[C@@H]4C3)C2)cc1F [Example 12, (4aR,8aS)-6-[3-[(E)-2-Fluoro-2-(3-fluoro-4-methyl-phenyl)vinyl]azetidine-1-carbonyl]-4,4a,5,7,8,8a-hexahydropyrido[4,3-b][1,4]oxazin-3-one]	–
